These results are taken from ChEMBL document CHEMBL5620355, “Discovery of intracellular self-assembly protein degraders driven by tumor-specific activatable bioorthogonal reaction” (Eur J Med Chem, 2023).

Active and inactive are the calls of the source. The rule behind the calls is not given here.

Broadly, the IC50 is the concentration that gives 50% inhibition.

Test [1] concerns U-87 MG. Kind of test: Antiproliferative activity against human U87 cells incubated for 48 hrs in presence of 4-(4-(3-(4-chloro-3-(trifluoromethyl)phenyl)ureido)phenoxy)-N-(prop-2-yn-1-yl)picolinamide by MTT assay. The class given is functional, cell-based, U-87MG ATCC.
For test [2], the system named is U-87 MG. Kind of test: Induction of apoptosis in human U87 cells assessed as late apoptotic cells at 20 uM incubated for 48 hrs in presence of 4-(4-(3-(4-chloro-3-(trifluoromethyl)phenyl)ureido)phenoxy)-N-(prop-2-yn-1-yl)picolinamide by Annexin V-FLTC/PI staining based flow cytometry (reference value: 3.71 %). The class given is functional, U-87MG ATCC. Background: A flow cytometer gives signals particle by particle.

Test [3] has as its target Platelet-derived growth factor receptor beta (Homo sapiens) (UniProt P09619). Kind of test: Induction of PDGFR-beta degradation in human U87 cells at 10 uM incubated for 48 hrs in presence of 4-(4-(3-(4-chloro-3-(trifluoromethyl)phenyl)ureido)phenoxy)-N-(prop-2-yn-1-yl)picolinamide by Western blot analysis. The class given is cell-based.
Test [4] relates to U-87 MG. Briefly: Induction of apoptosis in human U87 cells assessed as late apoptotic cells at 5 uM incubated for 48 hrs in presence of 4-(4-(3-(4-chloro-3-(trifluoromethyl)phenyl)ureido)phenoxy)-N-(prop-2-yn-1-yl)picolinamide by Annexin V-FLTC/PI staining based flow cytometry (reference value: 3.71 %). The class given is functional, U-87MG ATCC.
The next test concerns A549. Briefly: Antiproliferative activity against human A549 cells incubated for 48 hrs in presence of 4-(4-(3-(4-chloro-3-(trifluoromethyl)phenyl)ureido)phenoxy)-N-(prop-2-yn-1-yl)picolinamide by MTT assay. The settings on record: A549, 48 h. The class given is functional, cell-based. A general note: Tetrazolium dyes change colour on reduction, which living cells bring about.

In test [5] the test system is U-87 MG. Kind of test: Induction of apoptosis in human U87 cells assessed as early apoptotic cells at 1 uM incubated for 48 hrs in presence of 4-(4-(3-(4-chloro-3-(trifluoromethyl)phenyl)ureido)phenoxy)-N-(prop-2-yn-1-yl)picolinamide by Annexin V-FLTC/PI staining based flow cytometry (reference value: 8.95 %). The class given is functional, U-87MG ATCC.
For test [6], the target named is T1, Ephrin type-B receptor 4 (Homo sapiens) (UniProt P54760).
T1 sequence (whole entry): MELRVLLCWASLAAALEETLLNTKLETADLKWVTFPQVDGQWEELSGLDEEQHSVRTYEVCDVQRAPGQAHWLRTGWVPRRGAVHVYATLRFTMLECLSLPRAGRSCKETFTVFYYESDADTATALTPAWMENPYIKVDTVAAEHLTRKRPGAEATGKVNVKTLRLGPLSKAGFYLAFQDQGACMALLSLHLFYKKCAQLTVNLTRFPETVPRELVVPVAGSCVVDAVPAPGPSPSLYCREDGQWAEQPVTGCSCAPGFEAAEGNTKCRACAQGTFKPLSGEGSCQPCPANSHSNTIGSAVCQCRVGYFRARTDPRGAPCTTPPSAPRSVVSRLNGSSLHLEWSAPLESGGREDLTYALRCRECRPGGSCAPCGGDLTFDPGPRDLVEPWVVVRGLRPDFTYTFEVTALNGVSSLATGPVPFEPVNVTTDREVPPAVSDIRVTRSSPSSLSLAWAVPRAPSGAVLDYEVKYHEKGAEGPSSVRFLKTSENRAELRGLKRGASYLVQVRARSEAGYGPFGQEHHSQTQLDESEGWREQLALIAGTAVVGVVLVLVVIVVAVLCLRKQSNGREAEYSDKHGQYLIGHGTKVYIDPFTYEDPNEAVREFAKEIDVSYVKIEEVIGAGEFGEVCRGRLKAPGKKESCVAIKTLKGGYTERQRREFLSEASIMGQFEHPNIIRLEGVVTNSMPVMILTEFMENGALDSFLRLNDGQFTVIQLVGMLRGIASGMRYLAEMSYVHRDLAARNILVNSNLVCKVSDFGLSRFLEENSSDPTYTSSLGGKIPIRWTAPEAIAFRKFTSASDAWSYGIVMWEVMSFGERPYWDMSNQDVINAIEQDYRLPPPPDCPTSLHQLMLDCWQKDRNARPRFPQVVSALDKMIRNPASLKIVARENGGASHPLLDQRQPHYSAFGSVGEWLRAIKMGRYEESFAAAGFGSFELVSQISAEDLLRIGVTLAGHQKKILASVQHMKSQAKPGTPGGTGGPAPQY
Kind of test: Induction of EphB4 degradation in human U87 cells at 10 uM incubated for 48 hrs by Western blot analysis. The class given is cell-based. (In general: A western blot detects proteins with antibodies after separation by electrophoresis.)

Test [7] relates to U-87 MG. Kind of test: Induction of apoptosis in human U87 cells assessed as necrotic cells at 0.1 uM incubated for 48 hrs in presence of 4-(4-(3-(4-chloro-3-(trifluoromethyl)phenyl)ureido)phenoxy)-N-(prop-2-yn-1-yl)picolinamide by Annexin V-FLTC/PI staining based flow cytometry (reference value: 0.60 %). The class given is functional, U-87MG ATCC.
Test [8] has as its system U-87 MG. Briefly: Induction of apoptosis in human U87 cells assessed as viable cells at 5 uM incubated for 48 hrs in presence of (2S,4R)-1-((S)-2-(5-azidopentanamido)-3,3-dimethylbutanoyl)-4-hydroxy-N-(4-(4-methylthiazol-5-yl)benzyl)pyrrolidine-2-carboxamide by Annexin V-FLTC/PI staining based flow cytometry (reference value: 86.74 %). The class given is functional, U-87MG ATCC. The settings on record: read-out: Activity.

The test system of test [9] is U-87 MG. Kind of test: Induction of apoptosis in human U87 cells assessed as early apoptotic cells at 1 uM incubated for 48 hrs in presence of (2S,4R)-1-((S)-2-(5-azidopentanamido)-3,3-dimethylbutanoyl)-4-hydroxy-N-(4-(4-methylthiazol-5-yl)benzyl)pyrrolidine-2-carboxamide by Annexin V-FLTC/PI staining based flow cytometry (reference value: 8.95 %). The class given is functional, U-87MG ATCC.

Test [10] concerns the target Serine/threonine-protein kinase B-raf (Homo sapiens) (UniProt P15056). Kind of test: Induction of BRAF degradation in human U87 cells upto 10 uM incubated for 48 hrs by Western blot analysis. The class given is cell-based.
Test [11] has as its target Vascular endothelial growth factor receptor 2 (Homo sapiens) (UniProt P35968). Kind of test: Induction of VEGFR2 degradation in human U87 cells at 10 uM incubated for 48 hrs in presence of 4-azido-N-(2-(2,6-dioxopiperidin-3-yl)-1,3-dioxoisoindolin-4-yl)butanamide by Western blot analysis. The class given is cell-based.
Test [12] has as its system U-87 MG. Kind of test: Induction of apoptosis in human U87 cells assessed as viable cells at 1 uM incubated for 48 hrs in presence of (2S,4R)-1-((S)-2-(5-azidopentanamido)-3,3-dimethylbutanoyl)-4-hydroxy-N-(4-(4-methylthiazol-5-yl)benzyl)pyrrolidine-2-carboxamide by Annexin V-FLTC/PI staining based flow cytometry (reference value: 86.74 %). The class given is functional, U-87MG ATCC. The following applies: read-out: Activity.

Test [13] concerns U-87 MG. Briefly: Antiproliferative activity against human U87 cells incubated for 48 hrs in presence of (2S,4R)-1-((S)-2-(5-azidopentanamido)-3,3-dimethylbutanoyl)-4-hydroxy-N-(4-(4-methylthiazol-5-yl)benzyl)pyrrolidine-2-carboxamide by MTT assay. The class given is functional, cell-based, U-87MG ATCC.
For test [14], the target named is T1, Ephrin type-B receptor 4 (Homo sapiens). Briefly: Induction of EphB4 degradation in human U87 cells at 10 uM incubated for 48 hrs in presence of 4-azido-N-(2-(2,6-dioxopiperidin-3-yl)-1,3-dioxoisoindolin-4-yl)butanamide by Western blot analysis. The class given is cell-based.
The test system of test [15] is U-87 MG. Briefly: Induction of apoptosis in human U87 cells assessed as necrotic cells at 10 uM incubated for 48 hrs in presence of (2S,4R)-1-((S)-2-(5-azidopentanamido)-3,3-dimethylbutanoyl)-4-hydroxy-N-(4-(4-methylthiazol-5-yl)benzyl)pyrrolidine-2-carboxamide by Annexin V-FLTC/PI staining based flow cytometry (reference value: 0.60 %). The class given is functional, U-87MG ATCC.

Sequence of Vascular endothelial growth factor receptor 2 (Homo sapiens) (P35968 whole entry): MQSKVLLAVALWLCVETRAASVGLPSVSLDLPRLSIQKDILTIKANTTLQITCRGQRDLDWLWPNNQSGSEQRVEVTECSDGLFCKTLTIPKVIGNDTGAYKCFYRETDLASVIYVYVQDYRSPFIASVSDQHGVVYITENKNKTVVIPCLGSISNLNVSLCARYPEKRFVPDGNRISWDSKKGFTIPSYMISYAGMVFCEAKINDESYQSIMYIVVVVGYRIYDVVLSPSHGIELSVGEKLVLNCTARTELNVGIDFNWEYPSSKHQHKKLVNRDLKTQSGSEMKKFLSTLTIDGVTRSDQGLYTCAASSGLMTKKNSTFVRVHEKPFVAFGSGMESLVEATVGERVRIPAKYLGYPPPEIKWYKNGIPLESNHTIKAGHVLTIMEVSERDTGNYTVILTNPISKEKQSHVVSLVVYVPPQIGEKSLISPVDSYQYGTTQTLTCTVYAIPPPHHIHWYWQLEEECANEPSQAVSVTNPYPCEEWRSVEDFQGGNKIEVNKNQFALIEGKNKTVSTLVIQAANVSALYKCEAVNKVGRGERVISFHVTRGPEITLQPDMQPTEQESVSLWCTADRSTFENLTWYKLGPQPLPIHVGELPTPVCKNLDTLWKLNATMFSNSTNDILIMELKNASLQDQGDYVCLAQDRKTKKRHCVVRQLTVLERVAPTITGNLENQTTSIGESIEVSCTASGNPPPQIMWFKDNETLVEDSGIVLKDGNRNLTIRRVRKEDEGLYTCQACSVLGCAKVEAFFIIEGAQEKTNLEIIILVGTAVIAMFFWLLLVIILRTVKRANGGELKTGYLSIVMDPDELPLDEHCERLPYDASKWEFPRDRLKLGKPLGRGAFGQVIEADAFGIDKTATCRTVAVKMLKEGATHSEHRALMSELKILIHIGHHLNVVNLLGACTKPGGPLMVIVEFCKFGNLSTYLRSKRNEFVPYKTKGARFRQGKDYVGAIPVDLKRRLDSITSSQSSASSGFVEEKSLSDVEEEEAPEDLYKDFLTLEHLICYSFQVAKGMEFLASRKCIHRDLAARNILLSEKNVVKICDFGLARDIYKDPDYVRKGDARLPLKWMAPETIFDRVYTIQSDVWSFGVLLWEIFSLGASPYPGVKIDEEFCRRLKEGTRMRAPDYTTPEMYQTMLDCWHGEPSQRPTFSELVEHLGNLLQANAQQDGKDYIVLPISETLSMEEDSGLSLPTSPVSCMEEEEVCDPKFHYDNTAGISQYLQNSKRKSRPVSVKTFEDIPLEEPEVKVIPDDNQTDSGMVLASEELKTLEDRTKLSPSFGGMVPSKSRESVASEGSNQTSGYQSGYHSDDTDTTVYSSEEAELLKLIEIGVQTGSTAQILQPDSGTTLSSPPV
Sequence of Platelet-derived growth factor receptor beta (Homo sapiens) (P09619 whole entry): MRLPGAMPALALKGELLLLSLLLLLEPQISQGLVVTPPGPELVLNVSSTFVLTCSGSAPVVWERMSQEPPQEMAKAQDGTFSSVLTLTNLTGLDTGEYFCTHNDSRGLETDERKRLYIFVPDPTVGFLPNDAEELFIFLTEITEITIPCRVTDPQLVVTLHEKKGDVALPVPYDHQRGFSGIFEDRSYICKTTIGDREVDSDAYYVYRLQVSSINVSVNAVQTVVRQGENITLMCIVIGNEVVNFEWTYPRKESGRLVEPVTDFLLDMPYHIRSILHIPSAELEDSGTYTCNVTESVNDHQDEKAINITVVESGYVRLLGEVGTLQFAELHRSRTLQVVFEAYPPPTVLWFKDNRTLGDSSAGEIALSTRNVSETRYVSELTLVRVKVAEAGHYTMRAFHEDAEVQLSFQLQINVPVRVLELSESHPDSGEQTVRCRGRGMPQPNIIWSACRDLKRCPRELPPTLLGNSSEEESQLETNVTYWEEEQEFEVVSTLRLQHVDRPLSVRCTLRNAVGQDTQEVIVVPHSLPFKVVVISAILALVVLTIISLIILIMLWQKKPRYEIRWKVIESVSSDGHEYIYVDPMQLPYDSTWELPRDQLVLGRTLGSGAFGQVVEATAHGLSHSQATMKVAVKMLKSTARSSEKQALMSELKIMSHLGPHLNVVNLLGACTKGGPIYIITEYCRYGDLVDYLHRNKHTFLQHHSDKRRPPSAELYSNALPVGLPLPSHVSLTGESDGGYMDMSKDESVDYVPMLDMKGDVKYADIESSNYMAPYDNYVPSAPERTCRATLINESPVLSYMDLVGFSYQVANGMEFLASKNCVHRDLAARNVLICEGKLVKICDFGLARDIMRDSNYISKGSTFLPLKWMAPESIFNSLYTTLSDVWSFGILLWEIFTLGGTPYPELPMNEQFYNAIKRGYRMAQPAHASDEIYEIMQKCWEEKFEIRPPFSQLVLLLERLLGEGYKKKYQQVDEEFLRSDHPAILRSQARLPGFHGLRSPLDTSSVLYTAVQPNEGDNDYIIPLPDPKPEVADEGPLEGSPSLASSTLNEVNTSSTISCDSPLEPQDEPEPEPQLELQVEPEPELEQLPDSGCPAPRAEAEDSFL
Sequence of Serine/threonine-protein kinase B-raf (Homo sapiens) (P15056 whole entry): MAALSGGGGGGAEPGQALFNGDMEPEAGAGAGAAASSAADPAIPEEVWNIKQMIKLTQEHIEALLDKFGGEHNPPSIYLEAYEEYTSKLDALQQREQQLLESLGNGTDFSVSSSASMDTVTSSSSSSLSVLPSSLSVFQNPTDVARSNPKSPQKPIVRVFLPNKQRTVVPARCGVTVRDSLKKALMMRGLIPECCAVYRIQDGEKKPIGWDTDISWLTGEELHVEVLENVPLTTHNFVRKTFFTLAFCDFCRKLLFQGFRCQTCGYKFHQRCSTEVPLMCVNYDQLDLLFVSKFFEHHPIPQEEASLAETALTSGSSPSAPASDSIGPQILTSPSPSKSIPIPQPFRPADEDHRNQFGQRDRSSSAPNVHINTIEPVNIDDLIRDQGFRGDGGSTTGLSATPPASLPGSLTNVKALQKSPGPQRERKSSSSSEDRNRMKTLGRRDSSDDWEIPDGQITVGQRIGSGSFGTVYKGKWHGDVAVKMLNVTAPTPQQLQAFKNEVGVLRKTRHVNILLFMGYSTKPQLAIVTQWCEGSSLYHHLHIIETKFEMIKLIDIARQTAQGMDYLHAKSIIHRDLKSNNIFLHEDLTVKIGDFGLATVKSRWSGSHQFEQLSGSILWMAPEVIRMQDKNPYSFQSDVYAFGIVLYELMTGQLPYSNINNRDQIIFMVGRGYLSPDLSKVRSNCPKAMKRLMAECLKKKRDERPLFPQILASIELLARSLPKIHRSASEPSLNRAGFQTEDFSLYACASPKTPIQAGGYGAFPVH

Consider `[N-]=[N+]=NCCCC(=O)Nc1cccc2c1C(=O)N(C1CCC(=O)NC1=O)C2=O` (stereo unspecified), for which the concentration for half-maximal inhibition (IC50) in the test with U-87 MG [1] amounted to 5.68 µM; with A549, 1.16 µM. The Activity was 79.04% in the test on U-87 MG [2], 73.25% in the test with U-87 MG [4], 11.69% with U-87 MG [5] and 1.02% in the test with U-87 MG [7]. Besides, the result in test [3] and in [6] was Active.
On to `C#CCNC(=O)c1cc(Oc2ccc(NC(=O)Nc3ccc(Cl)c(C(F)(F)F)c3)cc2)ccn1`, for which, in the test with U-87 MG [8], the viability at 5 µM came to 1.48%. The figures for the Activity with U-87 MG [9] and with U-87 MG [15] were 11.69% and 25.6%, respectively. In addition, the outcome in test [10] was inactive. Further, the outcome in test [11] and in [14] was Active. In the test with U-87 MG [12], the viability at 1 µM turned out to be 81.6%. Further, the IC50 in the test on U-87 MG [13] was determined as 16 µM.
